In patent publication US11542259B2, “Compounds for the treatment of kinase-dependent disorders” (Exelixis, Inc., priority 2018, dated 2023):

Tests used:
Type in all cases: cell-based
Mer = Mer (Homo sapiens (Human), UniProt Q12866); test: Mer autophosphorylation ELISA in transient transfected 293A cells; details: cellular, MERTK transfected 293A cells
Description: 293A cells (Thermo Fisher #R70507) were seeded at 1.5×10^6 cells/well onto 100 mm dish (Greiner #664169), in DMEM (Thermo Fisher #11995-040) containing 10% FBS (Thermo Fisher #26140-079), 1% MEM NEAA (Thermo Fisher #11140-050), 1% GlutaMax (Thermo Fisher #35050-061), and 1% Penicillin Streptomycin (Thermo Fisher #15140-122). 293A cells were incubated at 37° C., 5% CO2 for 24 h and then transfected with 6 μg MERTK DNA (Genecopoeia #EX-Z8208-M02) using TransIT LT1 transfection reagent (Mirus-Bio #MIR2305). After 24 h incubation, the transfected 293A cells were seeded at 1×10^5 cells/well onto 96-well plates (Corning #3904) in DMEM growth medium overnight. Test compounds were serially diluted to produce an 8-point dose curve in fresh serum-free medium to a final concentration of 0.3% DMSO (vehicle) and added to the cells and incubated for 1 h. Cells were then immediately lysed with 150 μL of cold 1× lysis buffer [20 mM Tris, 137 mM sodium chloride, 2 mM EDTA, 10% glycerol, 1% NP-40 alternative, 1 mM activated sodium orthovanadate, 1 mM PefaBloc SC (Sigma-Aldrich #11429868001), protease/phosphatase inhibitor tablet (Thermo Fisher #A32959)]. Lysates were clarified by centrifugation and 50 μL/well added into the human phospho-Mer DuoSet IC ELISA (R&D Systems #DYC2579-2). Assay was performed according to manufacturer's instructions and sample phospho-Mer concentrations were extrapolated using human phospho-Mer control (R&D Systems #841793) as a standard. Positive control wells (100% activity) contained DMSO-treated cell lysates. Negative control wells (0% activity) contained reference inhibitor-treated cell lysates. IC50 values were calculated by nonlinear regression analysis using a 4-parameter logistic curve fit in ActivityBase XE (IDBS).

KDR = KDR (Homo sapiens (Human), UniProt P35968); test: KDR autophosphorylation ELISA in HUVEC cells; details: cellular, VEGF165 stimulated
Procedure, shortened: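 Phospho-KDR levels in lysates were measured by ELISA and referenced to stimulated-vehicle (100%) and unstimulated (0%) wells, IC50 from 4-parameter logistic fit. HUVEC, starved 24 h in serum-free medium, received an 8-point compound series (0.3% DMSO) for 1 h before a 5 min 100 ng/mL VEGF165 challenge.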

AXL = AXL (Homo sapiens (Human), UniProt P30530); test: AXL autophosphorylation ELISA in A-172 cells; details: cellular, Gas6 stimulated
Procedure, shortened: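 Serum-starved (24 h) A-172 glioblastoma cells pretreated 1 h with compounds (8-point curve, 0.3% DMSO), then stimulated 15 min with 1 μg/mL Gas6. Lysate phospho-AXL measured by sandwich ELISA against a phospho-AXL standard; IC50 from 4-parameter logistic fit between DMSO and reference-inhibitor controls.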

Met = Met (Homo sapiens (Human), UniProt P08581); test: Met autophosphorylation ELISA in PC-3 cells; details: cellular, HGF stimulated, read-out: c-Met IC50
Procedure, shortened: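 Phospho-Met (panTyr) sandwich ELISA on lysates of PC-3 cells given 100 ng/mL HGF for 10 min after 1 h compound exposure (8-point curve, 0.3% DMSO) following 3 h serum starvation. Normalised to HGF-stimulated DMSO and reference-inhibitor wells; 4-parameter logistic IC50.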

Chain of AXL (P30530 26-894): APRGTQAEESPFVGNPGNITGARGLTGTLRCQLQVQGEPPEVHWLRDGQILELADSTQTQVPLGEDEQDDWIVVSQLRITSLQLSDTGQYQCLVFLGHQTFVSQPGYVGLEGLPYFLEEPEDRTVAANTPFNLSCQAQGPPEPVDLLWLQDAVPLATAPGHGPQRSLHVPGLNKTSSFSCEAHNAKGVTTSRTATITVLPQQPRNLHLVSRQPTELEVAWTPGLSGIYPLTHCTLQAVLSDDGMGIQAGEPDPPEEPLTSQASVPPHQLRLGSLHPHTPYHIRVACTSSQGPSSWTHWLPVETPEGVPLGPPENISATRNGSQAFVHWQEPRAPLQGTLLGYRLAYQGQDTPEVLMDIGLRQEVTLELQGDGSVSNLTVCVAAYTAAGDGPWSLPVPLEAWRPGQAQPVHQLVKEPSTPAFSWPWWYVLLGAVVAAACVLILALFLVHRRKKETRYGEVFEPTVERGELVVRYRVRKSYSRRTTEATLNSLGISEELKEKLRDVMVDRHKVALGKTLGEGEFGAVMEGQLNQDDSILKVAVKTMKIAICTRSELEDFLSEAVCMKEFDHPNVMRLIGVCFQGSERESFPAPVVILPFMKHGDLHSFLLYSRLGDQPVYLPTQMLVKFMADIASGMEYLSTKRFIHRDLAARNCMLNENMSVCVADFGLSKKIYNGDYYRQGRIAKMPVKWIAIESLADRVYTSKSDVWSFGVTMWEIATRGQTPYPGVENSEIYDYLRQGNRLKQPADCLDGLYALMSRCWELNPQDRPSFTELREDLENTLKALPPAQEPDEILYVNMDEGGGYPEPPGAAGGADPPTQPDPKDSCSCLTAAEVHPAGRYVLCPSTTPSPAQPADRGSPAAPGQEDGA
Chain of KDR (P35968 20-1356): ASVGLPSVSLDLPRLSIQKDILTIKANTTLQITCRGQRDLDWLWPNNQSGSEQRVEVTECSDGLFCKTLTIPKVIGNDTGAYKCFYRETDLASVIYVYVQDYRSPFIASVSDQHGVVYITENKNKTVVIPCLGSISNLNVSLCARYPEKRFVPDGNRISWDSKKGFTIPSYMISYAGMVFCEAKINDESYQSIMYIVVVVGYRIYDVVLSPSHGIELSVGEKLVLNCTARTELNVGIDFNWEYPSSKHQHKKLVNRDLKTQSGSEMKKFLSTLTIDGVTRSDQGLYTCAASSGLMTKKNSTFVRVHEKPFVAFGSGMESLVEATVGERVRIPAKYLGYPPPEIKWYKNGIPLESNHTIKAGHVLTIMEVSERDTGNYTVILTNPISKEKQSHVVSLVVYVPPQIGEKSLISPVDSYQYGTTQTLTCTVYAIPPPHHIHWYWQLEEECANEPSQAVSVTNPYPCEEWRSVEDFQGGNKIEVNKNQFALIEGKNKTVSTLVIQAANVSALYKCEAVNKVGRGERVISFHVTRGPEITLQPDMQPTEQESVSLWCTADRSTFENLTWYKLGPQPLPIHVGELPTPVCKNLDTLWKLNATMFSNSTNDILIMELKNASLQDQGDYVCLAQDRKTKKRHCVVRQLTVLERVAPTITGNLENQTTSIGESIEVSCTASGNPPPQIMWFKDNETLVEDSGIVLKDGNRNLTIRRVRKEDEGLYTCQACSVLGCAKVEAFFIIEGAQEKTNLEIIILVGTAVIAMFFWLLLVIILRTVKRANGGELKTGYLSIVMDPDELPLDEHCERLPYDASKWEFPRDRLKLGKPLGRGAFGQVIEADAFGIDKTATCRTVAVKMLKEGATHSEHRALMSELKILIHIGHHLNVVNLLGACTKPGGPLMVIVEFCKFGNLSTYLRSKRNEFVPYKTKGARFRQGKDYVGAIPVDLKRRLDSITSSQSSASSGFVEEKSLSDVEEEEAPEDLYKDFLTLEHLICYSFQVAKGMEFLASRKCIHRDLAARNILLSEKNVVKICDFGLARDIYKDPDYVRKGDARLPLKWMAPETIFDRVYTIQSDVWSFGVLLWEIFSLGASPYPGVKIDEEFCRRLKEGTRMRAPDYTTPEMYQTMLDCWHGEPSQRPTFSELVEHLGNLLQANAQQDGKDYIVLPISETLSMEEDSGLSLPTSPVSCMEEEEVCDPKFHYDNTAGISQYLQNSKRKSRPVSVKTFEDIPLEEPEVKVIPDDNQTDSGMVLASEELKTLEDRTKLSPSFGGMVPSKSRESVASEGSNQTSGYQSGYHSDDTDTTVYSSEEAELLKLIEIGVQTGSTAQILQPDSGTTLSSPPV
Chain of Met (P08581 25-1390): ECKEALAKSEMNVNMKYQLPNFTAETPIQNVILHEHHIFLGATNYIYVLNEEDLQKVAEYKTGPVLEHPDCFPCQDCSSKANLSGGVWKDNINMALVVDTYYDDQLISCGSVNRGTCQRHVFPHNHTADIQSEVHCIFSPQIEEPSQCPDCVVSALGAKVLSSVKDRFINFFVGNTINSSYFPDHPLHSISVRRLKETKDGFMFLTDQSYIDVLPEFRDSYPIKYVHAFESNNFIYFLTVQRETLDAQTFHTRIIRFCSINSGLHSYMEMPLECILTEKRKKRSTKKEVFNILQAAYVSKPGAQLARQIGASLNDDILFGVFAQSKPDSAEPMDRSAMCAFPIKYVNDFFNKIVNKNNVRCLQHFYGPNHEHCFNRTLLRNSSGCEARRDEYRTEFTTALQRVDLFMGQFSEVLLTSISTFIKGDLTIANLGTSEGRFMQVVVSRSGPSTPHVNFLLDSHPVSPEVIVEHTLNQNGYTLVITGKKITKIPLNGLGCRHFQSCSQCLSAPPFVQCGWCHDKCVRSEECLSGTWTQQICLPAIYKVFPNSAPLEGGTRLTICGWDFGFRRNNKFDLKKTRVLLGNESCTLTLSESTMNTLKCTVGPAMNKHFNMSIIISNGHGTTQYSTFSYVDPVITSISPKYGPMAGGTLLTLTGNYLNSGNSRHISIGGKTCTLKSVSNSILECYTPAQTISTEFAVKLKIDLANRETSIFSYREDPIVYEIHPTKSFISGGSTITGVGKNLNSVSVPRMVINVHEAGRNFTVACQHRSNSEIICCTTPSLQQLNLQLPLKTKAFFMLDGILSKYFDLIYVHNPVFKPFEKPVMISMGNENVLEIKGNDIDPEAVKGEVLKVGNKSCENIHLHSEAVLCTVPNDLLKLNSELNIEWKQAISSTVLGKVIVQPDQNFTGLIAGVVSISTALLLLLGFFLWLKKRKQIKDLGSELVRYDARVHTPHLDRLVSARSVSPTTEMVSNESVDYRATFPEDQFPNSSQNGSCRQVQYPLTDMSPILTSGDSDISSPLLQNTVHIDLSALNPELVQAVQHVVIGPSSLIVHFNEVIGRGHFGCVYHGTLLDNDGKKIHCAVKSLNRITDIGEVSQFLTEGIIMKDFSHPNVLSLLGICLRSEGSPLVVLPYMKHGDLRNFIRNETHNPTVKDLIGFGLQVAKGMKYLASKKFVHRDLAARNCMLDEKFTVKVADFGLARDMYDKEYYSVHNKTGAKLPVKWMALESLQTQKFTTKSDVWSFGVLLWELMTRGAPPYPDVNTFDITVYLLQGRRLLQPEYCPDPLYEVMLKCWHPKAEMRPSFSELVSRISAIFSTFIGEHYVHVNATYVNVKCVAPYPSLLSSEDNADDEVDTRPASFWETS
Chain of Mer (Q12866 21-999): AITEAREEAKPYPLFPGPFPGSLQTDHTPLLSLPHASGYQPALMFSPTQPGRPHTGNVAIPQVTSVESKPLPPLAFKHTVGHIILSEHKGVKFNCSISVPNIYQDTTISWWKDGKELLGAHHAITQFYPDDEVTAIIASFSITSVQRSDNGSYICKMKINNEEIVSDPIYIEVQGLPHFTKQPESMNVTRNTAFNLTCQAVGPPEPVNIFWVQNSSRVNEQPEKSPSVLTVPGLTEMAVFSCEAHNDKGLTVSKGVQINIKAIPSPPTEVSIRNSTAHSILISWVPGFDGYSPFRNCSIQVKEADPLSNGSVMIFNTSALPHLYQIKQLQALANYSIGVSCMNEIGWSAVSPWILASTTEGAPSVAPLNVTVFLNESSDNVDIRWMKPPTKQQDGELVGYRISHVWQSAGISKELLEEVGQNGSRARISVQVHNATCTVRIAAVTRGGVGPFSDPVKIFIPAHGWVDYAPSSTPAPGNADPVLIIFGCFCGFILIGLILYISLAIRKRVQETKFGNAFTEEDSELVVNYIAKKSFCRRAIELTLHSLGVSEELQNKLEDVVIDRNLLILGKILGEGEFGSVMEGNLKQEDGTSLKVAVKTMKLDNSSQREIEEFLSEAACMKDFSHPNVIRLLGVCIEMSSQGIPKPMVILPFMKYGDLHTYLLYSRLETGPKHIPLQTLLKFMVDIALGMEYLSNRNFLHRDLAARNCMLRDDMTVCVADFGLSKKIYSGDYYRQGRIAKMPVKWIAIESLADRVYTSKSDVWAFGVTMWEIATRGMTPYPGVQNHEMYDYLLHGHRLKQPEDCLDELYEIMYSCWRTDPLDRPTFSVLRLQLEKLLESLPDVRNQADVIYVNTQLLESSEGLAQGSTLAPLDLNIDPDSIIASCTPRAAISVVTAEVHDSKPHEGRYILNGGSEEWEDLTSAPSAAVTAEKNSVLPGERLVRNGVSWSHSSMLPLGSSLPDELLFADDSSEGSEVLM

| Compound | IC50 (Mer) | IC50 (KDR) | IC50 (AXL) | IC50 (Met) |
| --- | --- | --- | --- | --- |
| CNS(=O)(=O)c1cc2c(Oc3ccc(NC(=O)C4(C(=O)Nc5ccc(F)cc5)CC4)cc3)ccnc2cc1OC [Compound 207, 1-N′-(4-Fluorophenyl)-1-N-[4-[7-methoxy-6-(methylsulfamoyl)quinolin-4-yl]oxyphenyl]cyclopropane-1,1-dicarboxamide] | 10 to 100 nM | 10 to 100 nM | 10 to 100 nM | 10 to 100 nM |
| COc1cc2nccc(Oc3ccc(NC(=O)C4(C(=O)Nc5ccc(F)cc5)CC4)cc3)c2cc1C(=O)NOC1COC1 [Compound 26, 1-N′-(4-fluorophenyl)-1-N-[4-[7-methoxy-6-(oxetan-3-yloxycarbamoyl)quinolin-4-yl]oxyphenyl]cyclopropane-1,1-dicarboxamide] | 10 to 100 nM | ≤ 10 nM | 10 to 100 nM | 10 to 100 nM |
| COc1cc2nccc(Oc3ccc(NC(=O)C4(C(=O)Nc5ccc(F)cc5)CC4)cc3)c2cc1C(=O)NN [Compound 32, 1-N′-(4-fluorophenyl)-1-N-[4-[6-(hydrazinecarbonyl)-7-methoxyquinolin-4-yl]oxyphenyl]cyclopropane-1,1-dicarboxamide] | ≤ 10 nM | ≤ 10 nM | ≤ 10 nM | 10 to 100 nM |
| CNC(=O)c1cc2c(Oc3ccc(NC(=O)C4(C(=O)Nc5ccc(F)cc5C)CC4)cc3F)ccnc2cc1OC [Compound 265, 1-N-[3-Fluoro-4-[7-methoxy-6-(methylcarbamoyl)quinolin-4-yl]oxyphenyl]-1-N′-(4-fluoro-2-methylphenyl)cyclopropane-1,1-dicarboxamide] | 10 to 100 nM | 10 to 100 nM | ≤ 10 nM | 10 to 100 nM |
| COc1cc2nccc(Oc3ccc(NC(=O)C4(C(=O)Nc5ccc(F)cc5)CC4)cc3)c2cc1-c1cnco1 [Compound 192, 1-N′-(4-Fluorophenyl)-1-N-[4-[7-methoxy-6-(1,3-oxazol-5-yl)quinolin-4-yl]oxyphenyl]cyclopropane-1,1-dicarboxamide] | ≤ 10 nM | ≤ 10 nM | ≤ 10 nM | 10 to 100 nM |
| O=C(NOC[C@H](O)CO)c1ccc2c(Oc3ccc(NC(=O)C4(C(=O)Nc5ccc(F)cc5)CC4)cc3)ccnc2c1 [Compound 169, 1-N-[4-[7-[[(2R)-2,3-Dihydroxypropoxy]carbamoyl]quinolin-4-yl]oxyphenyl]-1-N′-(4-fluorophenyl)cyclopropane-1,1-dicarboxamide] | > 300 nM | 100 to 300 nM | 100 to 300 nM | 100 to 300 nM |
| CONC(=O)c1ccc2c(Oc3ccc(NC(=O)C4(C(=O)Nc5ccc(F)cc5)CC4)cc3)ccnc2c1 [Compound 213, 1-N′-(4-Fluorophenyl)-1-N-[4-[7-(methoxycarbamoyl)quinolin-4-yl]oxyphenyl]cyclopropane-1,1-dicarboxamide] | 10 to 100 nM | 100 to 300 nM | 10 to 100 nM | 10 to 100 nM |
| CNC(=O)c1cc2c(Oc3ccc(NC(=O)C4(C(=O)Nc5ccc(Cl)cc5)CC4)cc3F)ccnc2cc1OC [Compound 274, 1-N-(4-Chlorophenyl)-1-N′-[3-fluoro-4-[7-methoxy-6-(methylcarbamoyl)quinolin-4-yl]oxyphenyl]cyclopropane-1,1-dicarboxamide] | ≤ 10 nM | ≤ 10 nM | 10 to 100 nM | 10 to 100 nM |
| COc1cc2nccc(Oc3ccc(NC(=O)C4(C(=O)Nc5ccc(F)cc5)CC4)cc3)c2cc1C(=O)NO [Compound 20, 1-N′-(4-fluorophenyl)-1-N-[4-[6-(hydroxycarbamoyl)-7-methoxyquinolin-4-yl]oxyphenyl]cyclopropane-1,1-dicarboxamide] | 10 to 100 nM | 10 to 100 nM | 10 to 100 nM | 10 to 100 nM |
| CNC(=O)c1cc2c(Oc3ccc(NC(=O)C4(C(=O)Nc5ccc(F)cc5OC)CC4)cc3F)ccnc2cc1OC [Compound 268, 1-N-[3-Fluoro-4-[7-methoxy-6-(methylcarbamoyl)quinolin-4-yl]oxyphenyl]-1-N′-(4-fluoro-2-methoxyphenyl)cyclopropane-1,1-dicarboxamide] | 10 to 100 nM | ≤ 10 nM | ≤ 10 nM | 10 to 100 nM |
| COc1cc2nccc(Oc3ccc(NC(=O)C4(C(=O)Nc5ccc(F)cc5)CC4)cc3)c2cc1C(=O)NOCCO [Compound 27, 1-N′-(4-fluorophenyl)-1-N-[4-[6-(2-hydroxyethoxycarbamoyl)-7-methoxyquinolin-4-yl]oxyphenyl]cyclopropane-1,1-dicarboxamide] | 10 to 100 nM | ≤ 10 nM | ≤ 10 nM | 10 to 100 nM |
| CCC1NC(=O)c2cc3c(Oc4ccc(NC(=O)C5(C(=O)Nc6ccc(F)cc6)CC5)cc4)ccnc3cc2O1 (stereo not drawn) [Compound 96, 1-N-[4-[(2-Ethyl-4-oxo-2,3-dihydropyrido[3,2-g][1,3]benzoxazin-6-yl)oxy]phenyl]-1-N′-(4-fluorophenyl)cyclopropane-1,1-dicarboxamide] | 10 to 100 nM | 100 to 300 nM | 10 to 100 nM | 100 to 300 nM |
| CO/N=C/c1ccc2c(Oc3ccc(NC(=O)C4(C(=O)Nc5ccc(F)cc5)CC4)cc3)ccnc2c1 [Compound 278, 1-N′-(4-Fluorophenyl)-1-N-[4-[7-[(E)-methoxyiminomethyl]quinolin-4-yl]oxyphenyl]cyclopropane-1,1-dicarboxamide] | 100 to 300 nM | 100 to 300 nM | 100 to 300 nM | 100 to 300 nM |
| COC(=O)Nc1cc2c(Oc3ccc(NC(=O)C4(C(=O)Nc5ccc(F)cc5)CC4)cc3)ccnc2cc1OC [Compound 280, Methyl N-[4-[4-[[1-[(4-fluorophenyl)carbamoyl]cyclopropane-carbonyl]amino]phenoxy]-7-methoxyquinolin-6-yl]carbamate] | ≤ 10 nM | ≤ 10 nM | ≤ 10 nM | 10 to 100 nM |
| CCNC(=O)c1ccc2c(Oc3ccc(NC(=O)C4(C(=O)Nc5ccc(F)cc5)CC4)cc3)ccnc2c1 [Compound 214, 1-N-[4-[7-(Ethylcarbamoyl)quinolin-4-yl]oxyphenyl]-1-N′-(4-fluorophenyl)cyclopropane-1,1-dicarboxamide] | 10 to 100 nM | 10 to 100 nM | 10 to 100 nM | 10 to 100 nM |
| CNC(=O)c1cc2c(Oc3ccc(NC(=O)C4(C(=O)Nc5ccc(F)cc5OC(C)C)CC4)cc3F)ccnc2cc1OC [Compound 269, 1-N-[3-Fluoro-4-[7-methoxy-6-(methylcarbamoyl)quinolin-4-yl]oxyphenyl]-1-N′-(4-fluoro-2-propan-2-yloxyphenyl)cyclopropane-1,1-dicarboxamide] | 10 to 100 nM | 10 to 100 nM | 10 to 100 nM | 100 to 300 nM |
| COc1cc2nccc(Oc3ccc(NC(=O)C4(C(=O)Nc5ccc(F)cc5)CC4)cc3)c2cc1P(C)(C)=O [Compound 51, 1-N-[4-(6-Dimethylphosphoryl-7-methoxyquinolin-4-yl)oxyphenyl]-1-N′-(4-fluorophenyl)cyclopropane-1,1-dicarboxamide] | 100 to 300 nM | 100 to 300 nM | 10 to 100 nM | 10 to 100 nM |
| CNC(=O)c1cc2c(Oc3ccc(NC(=O)C4(C(=O)Nc5ccc(F)cc5)CC4)cc3)ccnc2cc1OCCO [Compound 110, 1-N′-(4-Fluorophenyl)-1-N-[4-[7-(2-hydroxyethoxy)-6-(methylcarbamoyl)quinolin-4-yl]oxyphenyl]cyclopropane-1,1-dicarboxamide] | 10 to 100 nM | ≤ 10 nM | ≤ 10 nM | ≤ 10 nM |
